ChEMBL document CHEMBL5260810, “Inhibition of bromodomain-containing protein 9 for the prevention of epigenetically-defined drug resistance” (Bioorg Med Chem Lett, 2017)

Assays:
[1] = system: UMC-11; assay: Cytotoxicity against human UMC-11 cells measured after 8 days; assay type: functional, cell-based; conditions: UMC-11, 192 h
[2] = target: Bromodomain-containing protein 3 (Homo sapiens, UniProt Q15059); assay: Binding affinity to human partial length BRD3 bromodomain 2 (G306 to P416 residues) expressed in bacterial expression system by BROMOscan assay
[3] = system: CAMA-1; assay: Cytotoxicity against human CAMA-1 cells measured after 8 days; assay type: functional, cell-based; conditions: CAMA-1, 192 h
[4] = system: NCI-H2122; assay: Cytotoxicity against human NCI-H2122 cells measured after 8 days; assay type: functional, cell-based; conditions: NCI-H2122, 192 h
[5] = system: CX-1; assay: Cytotoxicity against human CX-1 cells measured after 8 days; assay type: functional, cell-based; conditions: CX-1, 192 h
[6] = system: MEL-JUSO; assay: Cytotoxicity against human MEL-JUSO cells measured after 8 days; assay type: functional, cell-based; conditions: 192 h
[7] = system: Granta-519; assay: Cytotoxicity against human Granta-519 cells measured after 8 days; assay type: functional, cell-based; conditions: Granta-519, 192 h
[8] = system: NCI-H650; assay: Cytotoxicity against human NCI-H650 cells measured after 8 days; assay type: functional, cell-based; conditions: NCI-H650, 192 h
[9] = target: Transcription initiation factor TFIID subunit 1-like (Homo sapiens, UniProt Q8IZX4); assay: Binding affinity to human partial length TAF1L bromodomain 2 (Q1523 to D1654 residues) expressed in bacterial expression system by BROMOscan assay
[10] = system: WSUDLCL2; assay: Cytotoxicity against human WSUDLCL2 cells measured after 8 days; assay type: functional, cell-based; conditions: WSUDLCL2, 192 h
[11] = system: HCC78; assay: Cytotoxicity against human HCC78 cells measured after 8 days; assay type: functional, cell-based; conditions: HCC78, 192 h
[12] = system: HCC1806; assay: Cytotoxicity against human HCC1806 cells measured after 8 days; assay type: functional, cell-based; conditions: HCC1806, 192 h
[13] = system: NCI-H647; assay: Cytotoxicity against human NCI-H647 cells measured after 8 days; assay type: functional, cell-based; conditions: NCI-H647, 192 h
[14] = Cytotoxicity against human NCI-H1869 cells measured after 8 days; assay type: functional, cell-based; conditions: NCI-H1869, 192 h
[15] = target: T1, 5-hydroxytryptamine receptor 1A (Homo sapiens) (UniProt P08908); assay: Displacement of [3H]8-OH-DPAT from recombinant human 5-HT1A receptor at 10 uM after 60 mins by scintillation counting analysis relative to control
T1 sequence (whole entry): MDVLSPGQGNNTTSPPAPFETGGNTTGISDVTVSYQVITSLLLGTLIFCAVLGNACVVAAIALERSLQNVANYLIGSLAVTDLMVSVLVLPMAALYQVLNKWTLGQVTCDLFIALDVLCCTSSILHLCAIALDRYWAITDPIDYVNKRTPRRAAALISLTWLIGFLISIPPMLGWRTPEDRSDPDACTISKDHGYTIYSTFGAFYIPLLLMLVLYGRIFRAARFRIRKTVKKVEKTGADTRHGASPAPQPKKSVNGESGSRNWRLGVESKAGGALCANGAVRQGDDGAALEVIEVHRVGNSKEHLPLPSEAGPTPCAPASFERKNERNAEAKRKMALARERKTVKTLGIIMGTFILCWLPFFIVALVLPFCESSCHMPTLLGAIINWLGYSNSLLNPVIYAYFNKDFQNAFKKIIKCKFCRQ

[16] = system: NUGC-4; assay: Cytotoxicity against human NUGC-4 cells measured after 8 days; assay type: functional, cell-based; conditions: NUGC-4, 192 h
[17] = system: CA46; assay: Cytotoxicity against human CA46 cells measured after 8 days; assay type: functional, cell-based; conditions: CA46, 192 h
[18] = Cytotoxicity against human KMS-27 cells measured after 8 days; assay type: functional, cell-based; conditions: KMS-27, 192 h
[19] = system: JIMT-1; assay: Cytotoxicity against human JIMT-1 cells measured after 8 days; assay type: functional, cell-based; conditions: JIMT-1, 192 h
[20] = system: NCI-H1651; assay: Cytotoxicity against human NCI-H1651 cells measured after 8 days; assay type: functional, cell-based; conditions: NCI-H1651, 192 h
[21] = system: NCI-H460; assay: Cytotoxicity against human NCI-H460 cells measured after 8 days; assay type: functional, cell-based; conditions: NCI-H460, 192 h
[22] = target: Serine/threonine-protein kinase SIK2 (Homo sapiens) (UniProt Q9H0K1); assay: Inhibition of SIK2 (unknown origin) at 1 uM relative to control
[23] = Cytotoxicity against human KMM-1 cells measured after 8 days; assay type: functional, cell-based; conditions: KMM-1, 192 h
[24] = system: MC116; assay: Cytotoxicity against human MC116 cells measured after 8 days; assay type: functional, cell-based; conditions: MC116, 192 h
[25] = Cytotoxicity against human MDST8 cells measured after 8 days; assay type: functional, cell-based; conditions: MDST8, 192 h
[26] = system: NCI-H358; assay: Cytotoxicity against human NCI-H358 cells measured after 8 days; assay type: functional, cell-based; conditions: NCI-H358, 192 h
[27] = system: SW1573; assay: Cytotoxicity against human SW1573 cells measured after 8 days; assay type: functional, cell-based; conditions: SW1573, 192 h
[28] = system: SU-DHL-1; assay: Cytotoxicity against human SU-DHL-1 cells measured after 8 days; assay type: functional, cell-based; conditions: SU-DHL-1, 192 h
[29] = target: Histamine H1 receptor (Homo sapiens) (UniProt P35367); assay: Displacement of [3H]pyrilamine from human recombinant histamine H1 receptor at 10 uM after 60 mins by scintillation counting analysis relative to control
[30] = system: Hs-578T; assay: Cytotoxicity against human Hs-578T cells measured after 8 days; assay type: functional, cell-based; conditions: 192 h
[31] = target: Histone acetyltransferase p300 (Homo sapiens, UniProt Q09472); assay: Binding affinity to human partial length EP300 (A1040 to G1161 residues) expressed in bacterial expression system by BROMOscan assay
[32] = system: HCC4006; assay: Cytotoxicity against human HCC4006 cells measured after 8 days; assay type: functional, cell-based; conditions: HCC4006, 192 h
[33] = Cytotoxicity against human HCA7 cells measured after 8 days; assay type: functional, cell-based; conditions: HCA-7, 192 h
[34] = system: HDQ-P1; assay: Cytotoxicity against human HDQ-P1 cells measured after 8 days; assay type: functional, cell-based; conditions: HDQ-P1, 192 h
[35] = system: NCI-H1155; assay: Cytotoxicity against human NCI-H1155 cells measured after 8 days; assay type: functional, cell-based; conditions: NCI-H1155, 192 h
[36] = system: NCI-H1944; assay: Cytotoxicity against human NCI-H1944 cells measured after 8 days; assay type: functional, cell-based; conditions: NCI-H1944, 192 h
[37] = system: EB2; assay: Cytotoxicity against human EB2 cells measured after 8 days; assay type: functional, cell-based; conditions: EB2, 192 h
[38] = system: COLO 205; assay: Cytotoxicity against human COLO 205 cells measured after 8 days; assay type: functional, cell-based; conditions: COLO 205, 192 h
[39] = Cytotoxicity against human NCI-H2722 cells measured after 8 days; assay type: functional, cell-based; conditions: NCI-H2722, 192 h
[40] = target: cAMP-dependent protein kinase (PKA) (Homo sapiens) (UniProt P22694+P17612+P22612); assay: Inhibition of PKA (unknown origin) at 1 uM relative to control; assay type: protein assay
[41] = Cytotoxicity against human NCI-H1339 cells measured after 8 days; assay type: functional, cell-based; conditions: NCI-H1339, 192 h
[42] = system: NCI-H292; assay: Cytotoxicity against human NCI-H292 cells measured after 8 days; assay type: functional, cell-based; conditions: NCI-H292, 192 h
[43] = target: Proto-oncogene tyrosine-protein kinase receptor Ret (Homo sapiens) (UniProt P07949); assay: Inhibition of Ret (unknown origin) at 1 uM relative to control
[44] = Cytotoxicity against human GP2d cells measured after 8 days; assay type: functional, cell-based; conditions: 192 h

Chain of Histone acetyltransferase p300 (Q09472 whole entry, the tested form may be a part): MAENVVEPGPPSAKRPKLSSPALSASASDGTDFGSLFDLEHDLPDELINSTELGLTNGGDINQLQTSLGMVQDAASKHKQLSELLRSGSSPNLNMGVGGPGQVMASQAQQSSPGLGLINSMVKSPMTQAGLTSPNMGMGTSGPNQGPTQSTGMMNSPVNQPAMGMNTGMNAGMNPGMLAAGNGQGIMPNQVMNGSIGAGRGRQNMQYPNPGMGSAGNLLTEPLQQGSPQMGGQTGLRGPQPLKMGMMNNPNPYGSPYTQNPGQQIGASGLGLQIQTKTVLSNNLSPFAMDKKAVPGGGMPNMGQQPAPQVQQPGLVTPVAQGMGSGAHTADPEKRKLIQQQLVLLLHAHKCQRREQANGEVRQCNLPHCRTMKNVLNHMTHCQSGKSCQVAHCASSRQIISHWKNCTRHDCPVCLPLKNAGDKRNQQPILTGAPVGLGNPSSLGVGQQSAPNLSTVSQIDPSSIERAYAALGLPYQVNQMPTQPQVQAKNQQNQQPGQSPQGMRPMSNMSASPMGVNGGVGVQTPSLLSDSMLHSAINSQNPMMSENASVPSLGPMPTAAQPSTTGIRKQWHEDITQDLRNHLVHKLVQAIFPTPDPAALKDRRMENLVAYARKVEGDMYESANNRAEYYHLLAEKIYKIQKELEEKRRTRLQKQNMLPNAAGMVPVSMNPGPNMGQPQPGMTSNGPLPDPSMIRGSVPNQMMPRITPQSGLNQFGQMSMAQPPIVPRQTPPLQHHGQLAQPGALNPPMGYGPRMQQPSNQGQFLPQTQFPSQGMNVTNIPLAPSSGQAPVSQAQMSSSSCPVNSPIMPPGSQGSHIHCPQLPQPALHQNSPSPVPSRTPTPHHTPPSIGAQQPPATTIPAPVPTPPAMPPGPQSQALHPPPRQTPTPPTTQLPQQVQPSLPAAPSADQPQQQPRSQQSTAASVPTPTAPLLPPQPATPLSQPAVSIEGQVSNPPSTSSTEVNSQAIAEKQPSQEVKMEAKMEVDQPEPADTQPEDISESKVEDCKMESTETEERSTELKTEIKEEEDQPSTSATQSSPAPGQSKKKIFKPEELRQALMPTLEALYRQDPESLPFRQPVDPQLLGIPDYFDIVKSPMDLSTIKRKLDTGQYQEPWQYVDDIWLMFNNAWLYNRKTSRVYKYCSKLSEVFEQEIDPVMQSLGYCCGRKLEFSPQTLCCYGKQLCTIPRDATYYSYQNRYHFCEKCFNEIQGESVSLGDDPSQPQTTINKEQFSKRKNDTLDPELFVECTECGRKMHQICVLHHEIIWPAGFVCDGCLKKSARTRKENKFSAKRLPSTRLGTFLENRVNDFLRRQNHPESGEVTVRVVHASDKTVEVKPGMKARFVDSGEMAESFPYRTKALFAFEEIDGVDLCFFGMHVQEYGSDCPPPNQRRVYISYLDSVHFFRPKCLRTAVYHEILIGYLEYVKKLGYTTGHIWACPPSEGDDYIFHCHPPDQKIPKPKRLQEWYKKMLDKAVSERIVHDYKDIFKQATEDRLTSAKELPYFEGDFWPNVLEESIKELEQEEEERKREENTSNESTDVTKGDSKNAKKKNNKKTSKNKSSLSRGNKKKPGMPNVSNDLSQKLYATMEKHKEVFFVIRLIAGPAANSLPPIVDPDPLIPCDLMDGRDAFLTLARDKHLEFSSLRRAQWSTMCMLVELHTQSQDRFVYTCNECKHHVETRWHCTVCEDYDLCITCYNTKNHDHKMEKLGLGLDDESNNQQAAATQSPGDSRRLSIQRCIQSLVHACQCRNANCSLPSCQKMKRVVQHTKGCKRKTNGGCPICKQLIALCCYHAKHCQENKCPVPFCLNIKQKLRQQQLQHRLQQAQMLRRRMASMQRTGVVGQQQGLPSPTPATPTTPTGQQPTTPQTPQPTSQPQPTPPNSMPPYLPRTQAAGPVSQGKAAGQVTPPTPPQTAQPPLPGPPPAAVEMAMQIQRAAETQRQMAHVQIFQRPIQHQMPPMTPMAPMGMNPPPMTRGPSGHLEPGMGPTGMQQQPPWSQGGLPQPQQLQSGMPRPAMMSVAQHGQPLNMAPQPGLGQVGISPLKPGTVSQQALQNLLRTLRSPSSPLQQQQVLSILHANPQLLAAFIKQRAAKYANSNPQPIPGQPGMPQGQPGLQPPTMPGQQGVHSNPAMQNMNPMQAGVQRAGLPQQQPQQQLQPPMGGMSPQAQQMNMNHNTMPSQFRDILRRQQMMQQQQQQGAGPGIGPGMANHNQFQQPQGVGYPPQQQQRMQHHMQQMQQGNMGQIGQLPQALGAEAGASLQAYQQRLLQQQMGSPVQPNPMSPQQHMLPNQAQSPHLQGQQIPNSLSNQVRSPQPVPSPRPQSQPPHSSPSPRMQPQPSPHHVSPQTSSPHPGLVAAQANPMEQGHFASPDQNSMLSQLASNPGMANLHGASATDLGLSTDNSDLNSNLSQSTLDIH
Chain of Histamine H1 receptor (Homo sapiens) (P35367 whole entry): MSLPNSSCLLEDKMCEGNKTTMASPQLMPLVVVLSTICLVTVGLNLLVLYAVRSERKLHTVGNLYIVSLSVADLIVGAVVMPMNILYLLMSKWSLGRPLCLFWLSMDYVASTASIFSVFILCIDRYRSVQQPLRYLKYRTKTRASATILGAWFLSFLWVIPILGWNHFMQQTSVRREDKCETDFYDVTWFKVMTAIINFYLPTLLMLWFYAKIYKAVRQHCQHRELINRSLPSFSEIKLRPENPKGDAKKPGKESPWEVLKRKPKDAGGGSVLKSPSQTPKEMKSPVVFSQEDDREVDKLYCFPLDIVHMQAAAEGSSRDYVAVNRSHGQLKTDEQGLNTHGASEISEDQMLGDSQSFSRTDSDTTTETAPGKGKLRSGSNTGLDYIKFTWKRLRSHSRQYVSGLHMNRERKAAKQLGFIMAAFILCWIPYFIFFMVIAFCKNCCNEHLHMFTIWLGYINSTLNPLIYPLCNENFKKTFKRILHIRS
Chain of Serine/threonine-protein kinase SIK2 (Homo sapiens) (Q9H0K1 whole entry, looked up): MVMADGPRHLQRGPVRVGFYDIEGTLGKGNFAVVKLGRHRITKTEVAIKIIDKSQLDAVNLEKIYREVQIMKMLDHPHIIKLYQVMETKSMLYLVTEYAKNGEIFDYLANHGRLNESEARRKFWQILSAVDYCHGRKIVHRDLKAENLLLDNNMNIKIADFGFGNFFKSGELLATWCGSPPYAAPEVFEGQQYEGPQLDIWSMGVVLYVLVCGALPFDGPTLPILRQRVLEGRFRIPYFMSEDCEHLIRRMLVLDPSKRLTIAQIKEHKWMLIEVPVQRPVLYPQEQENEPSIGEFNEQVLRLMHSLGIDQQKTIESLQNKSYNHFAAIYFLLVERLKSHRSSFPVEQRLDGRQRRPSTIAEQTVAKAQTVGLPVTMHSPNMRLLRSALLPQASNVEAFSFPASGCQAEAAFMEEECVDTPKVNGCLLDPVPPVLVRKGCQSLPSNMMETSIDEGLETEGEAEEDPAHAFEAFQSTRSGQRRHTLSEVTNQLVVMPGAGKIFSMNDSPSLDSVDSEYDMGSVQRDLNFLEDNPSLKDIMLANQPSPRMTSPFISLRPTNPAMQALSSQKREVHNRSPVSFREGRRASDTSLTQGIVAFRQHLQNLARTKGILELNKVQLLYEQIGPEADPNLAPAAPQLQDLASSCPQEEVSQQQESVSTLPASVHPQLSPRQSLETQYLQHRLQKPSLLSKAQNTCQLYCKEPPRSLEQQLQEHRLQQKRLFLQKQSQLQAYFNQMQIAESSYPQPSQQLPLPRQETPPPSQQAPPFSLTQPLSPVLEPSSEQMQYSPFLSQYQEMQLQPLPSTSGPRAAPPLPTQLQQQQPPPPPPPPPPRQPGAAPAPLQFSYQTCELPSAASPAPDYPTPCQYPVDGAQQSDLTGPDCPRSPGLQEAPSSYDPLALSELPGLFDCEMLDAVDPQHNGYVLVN
Chain of Proto-oncogene tyrosine-protein kinase receptor Ret (Homo sapiens) (P07949 whole entry): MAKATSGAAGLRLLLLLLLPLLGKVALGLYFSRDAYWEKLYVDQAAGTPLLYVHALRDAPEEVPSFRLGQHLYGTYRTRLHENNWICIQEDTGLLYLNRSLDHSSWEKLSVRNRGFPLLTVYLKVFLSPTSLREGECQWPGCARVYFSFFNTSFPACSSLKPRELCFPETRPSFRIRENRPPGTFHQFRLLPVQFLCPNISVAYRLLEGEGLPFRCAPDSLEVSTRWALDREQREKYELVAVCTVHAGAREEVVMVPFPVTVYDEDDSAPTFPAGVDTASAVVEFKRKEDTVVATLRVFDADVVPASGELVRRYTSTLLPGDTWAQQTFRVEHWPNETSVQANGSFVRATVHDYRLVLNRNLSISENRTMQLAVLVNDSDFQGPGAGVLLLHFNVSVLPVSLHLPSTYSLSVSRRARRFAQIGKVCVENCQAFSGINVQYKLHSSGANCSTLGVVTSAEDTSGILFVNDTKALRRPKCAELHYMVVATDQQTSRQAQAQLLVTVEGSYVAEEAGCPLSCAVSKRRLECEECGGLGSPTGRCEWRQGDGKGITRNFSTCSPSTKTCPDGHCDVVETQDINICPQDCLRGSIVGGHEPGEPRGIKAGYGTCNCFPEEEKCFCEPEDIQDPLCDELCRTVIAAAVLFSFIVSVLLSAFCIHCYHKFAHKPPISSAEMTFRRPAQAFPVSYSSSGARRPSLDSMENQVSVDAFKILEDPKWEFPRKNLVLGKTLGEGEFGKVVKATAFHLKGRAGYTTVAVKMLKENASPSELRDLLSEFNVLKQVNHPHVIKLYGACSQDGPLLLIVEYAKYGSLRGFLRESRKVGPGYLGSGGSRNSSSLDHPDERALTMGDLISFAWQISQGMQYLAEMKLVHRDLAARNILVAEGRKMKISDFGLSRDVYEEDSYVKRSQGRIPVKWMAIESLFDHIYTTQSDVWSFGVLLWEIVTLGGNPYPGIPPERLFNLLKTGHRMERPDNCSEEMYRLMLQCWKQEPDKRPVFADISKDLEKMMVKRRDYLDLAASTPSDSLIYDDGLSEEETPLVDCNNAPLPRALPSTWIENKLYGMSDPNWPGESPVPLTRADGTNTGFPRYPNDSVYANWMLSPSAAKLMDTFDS

C/C=C/Cn1cc(-c2ccc(C(=O)N3CCOCC3)cc2)c2cc[nH]c2c1=O
IC50 [1]: 20 µM
Kd [2]: 4.4 µM
IC50 [3]: 20 µM
IC50 [4]: 20 µM
IC50 [5]: 20 µM
IC50 [6]: 20 µM
IC50 [7]: 20 µM
IC50 [8]: 20 µM
Kd [9]: 0.61 µM
IC50 [10]: 8.31 µM
IC50 [11]: 20 µM
IC50 [12]: 20 µM
IC50 [13]: 20 µM
IC50 [14]: 20 µM
Activity [15]: 7%
IC50 [16]: 20 µM
IC50 [17]: 20 µM
IC50 [18]: 20 µM
IC50 [19]: 20 µM
IC50 [20]: 20 µM
IC50 [21]: 20 µM
inhibition [22]: 2.8%
IC50 [23]: 20 µM
IC50 [24]: 10.2 µM
IC50 [25]: 20 µM
IC50 [26]: 20 µM
IC50 [27]: 20 µM
IC50 [28]: 20 µM
Activity [29]: 0%
IC50 [30]: 20 µM
Kd [31]: > 10 µM
IC50 [32]: 20 µM
IC50 [33]: 20 µM
IC50 [34]: 20 µM
IC50 [35]: 20 µM
IC50 [36]: 20 µM
IC50 [37]: 20 µM
IC50 [38]: 20 µM
IC50 [39]: 20 µM
inhibition [40]: -6.8%
IC50 [41]: 20 µM
IC50 [42]: 20 µM
inhibition [43]: -0.9%
IC50 [44]: 20 µM

C/C=C/Cn1cc(-c2ccc(C(C)(C)O)cc2OC)c2cc[nH]c2c1=O
IC50 [1]: 20 µM
Kd [2]: 4 µM
IC50 [3]: 20 µM
IC50 [4]: 20 µM
IC50 [5]: 20 µM
IC50 [6]: 20 µM
IC50 [7]: 20 µM
IC50 [8]: 20 µM
Kd [9]: > 10 µM
IC50 [10]: 7.32 µM
IC50 [11]: 20 µM
IC50 [12]: 20 µM
IC50 [13]: 20 µM
IC50 [14]: 20 µM
Activity [15]: 11%
IC50 [16]: 20 µM
IC50 [17]: 9.85 µM
IC50 [18]: 20 µM
IC50 [19]: 20 µM
IC50 [20]: 20 µM
IC50 [21]: 20 µM
inhibition [22]: 0.5%
IC50 [23]: 20 µM
IC50 [24]: 4.97 µM
IC50 [25]: 20 µM
IC50 [26]: 20 µM
IC50 [27]: 20 µM
IC50 [28]: 20 µM
Activity [29]: 1%
IC50 [30]: 20 µM
Kd [31]: 4.5 µM
IC50 [32]: 20 µM
IC50 [33]: 20 µM
IC50 [34]: 20 µM
IC50 [35]: 20 µM
IC50 [36]: 20 µM
IC50 [37]: 20 µM
IC50 [38]: 20 µM
IC50 [39]: 20 µM
inhibition [40]: 3%
IC50 [41]: 20 µM
IC50 [42]: 20 µM
inhibition [43]: 2%
IC50 [44]: 20 µM

C/C=C/Cn1cc(-c2cc(OC)c(C(=O)N3CCOCC3)cc2OC)c2cc(C)[nH]c2c1=O
IC50 [1]: 2 µM
Kd [2]: > 10 µM
IC50 [3]: 2 µM
IC50 [4]: 2 µM
IC50 [5]: 2 µM
IC50 [6]: 2 µM
IC50 [7]: 2 µM
IC50 [8]: 2 µM
Kd [9]: > 10 µM
IC50 [10]: 2 µM
IC50 [11]: 2 µM
IC50 [12]: 2 µM
IC50 [13]: 2 µM
IC50 [14]: 2 µM
Activity [15]: 6%
IC50 [16]: 2 µM
IC50 [17]: 2 µM
IC50 [18]: 2 µM
IC50 [19]: 2 µM
IC50 [20]: 2 µM
IC50 [21]: 2 µM
inhibition [22]: 1.5%
IC50 [23]: 2 µM
IC50 [24]: 2 µM
IC50 [25]: 2 µM
IC50 [26]: 2 µM
IC50 [27]: 2 µM
IC50 [28]: 2 µM
Activity [29]: 1%
IC50 [30]: 2 µM
Kd [31]: > 10 µM
IC50 [32]: 2 µM
IC50 [33]: 2 µM
IC50 [34]: 2 µM
IC50 [35]: 2 µM
IC50 [36]: 2 µM
IC50 [37]: 2 µM
IC50 [38]: 2 µM
IC50 [39]: 2 µM
inhibition [40]: 6%
IC50 [41]: 2 µM
IC50 [42]: 2 µM
inhibition [43]: 3%
IC50 [44]: 2 µM

C/C=C/Cn1cc(-c2cc(OC)c(C(C)(C)O)cc2OC)c2cc(C)[nH]c2c1=O
Kd [2]: > 10 µM
Kd [9]: > 10 µM
Kd [31]: > 10 µM
